# Measured values reported in patent publication US10844044B2 (Vanderbilt University, priority 2018, dated 2020).
# pKi: −log10 of the molar value.
# Biological target: WDR5 (Homo sapiens (Human), UniProt P61964)
# Experiment: TR-FRET binding assay (displacement of 10mer-Thr-FAM probe from WDR5)
# Details: not given
row,pKi,SMILES
1,8.05,"COc1cc(CNC(=O)c2cc(Cn3ccn(C)c3=N)cc(-c3ccc(F)cc3C(N)=O)c2)cc(OC)c1 [Example 152, N3′-(3,5-dimethoxybenzyl)-4-fluoro-5′-((2-imino-3-methyl-2,3-dihydro-1H-imidazol-1-yl)methyl)-[1,1′-biphenyl]-2,3′-dicarboxamide]"
2,7.64,"COc1cccc(-c2cc(Cn3ccn(C)c3=N)cc(C(=O)NCc3ccc(Cl)c(Cl)c3)c2)n1 [Example 169, N-(3,4-Dichlorobenzyl)-3-((2-imino-3-methyl-2,3-dihydro-1H-imidazol-1-yl)methyl)-5-(6-methoxypyridin-2-yl)benzamide]"

# Same assay, conditions: read-out: Ki for Inhibition of WDR5 by TR-FRET assay
row,SMILES,pKi
1,"Cc1cc([C@H](C)NC(=O)c2cc(Cn3ccn(C)c3=N)cc(OC(F)(F)F)c2)ccc1F [Example 170, (S)—N-(1-(4-Fluoro-3-methylphenyl)ethyl)-3-((2-imino-3-methyl-2,3-dihydro-1H-imidazol-1-yl)methyl)-5-(trifluoromethoxy)benzamide]",9.66
2,"CCn1cc(-c2cc(Cn3ccn(C4CC4)c3=N)cc(C(=O)NCc3ccc(F)c(C)c3)c2)c(C(F)(F)F)n1 [Example 197, 3-((3-Cyclopropyl-2-imino-2,3-dihydro-1H-imidazol-1-yl)methyl)-5-(1-ethyl-3-(trifluoromethyl)-1H-pyrazol-4-yl)-N-(4-fluoro-3-methylbenzyl)benzamide]",> 10.00

# Same assay, conditions: read-out: Ki for Inhibition of WDR5 by TR-FRET assay; TR-FRET, 10mer-Thr-FAM probe, WDR5-His tag 2 nM, pH 7.0
row,SMILES,pKi
1,"Cn1ccn(Cc2cc(C(=O)N[C@H](c3ccc(Cl)c(Cl)c3)C3CC3)cc(-c3ccc(F)cc3OC(F)F)c2)c1=N [Example 150, (S)—N-(Cyclopropyl(3,4-dichlorophenyl)methyl)-2′-(difluoromethoxy)-4′-fluoro-5-((2-imino-3-methyl-2,3-dihydro-1H-imidazol-1-yl)methyl)-[1,1′-biphenyl]-3-carboxamide]",9.89
2,"N=c1n(Cc2cc(C(=O)N[C@H](c3ccc(Cl)c(Cl)c3)C3CC3)cc(-c3ccc(F)cc3OC(F)F)c2)ccn1C1CC1 [Example 151, (S)—N-(Cyclopropyl(3,4-dichlorophenyl)methyl)-5-((3-cyclopropyl-2-imino-2,3-dihydro-1H-imidazol-1-yl)methyl)-2′-(difluoromethoxy)-4′-fluoro-[1,1′-biphenyl]-3-carboxamide]",9.23
3,"Cn1ccn(Cc2cc(C(=O)N[C@H](c3ccc(Cl)c(Cl)c3)C3CC3)cc(-c3cccnc3C(F)(F)F)c2)c1=N [Example 153, (S)—N-(Cyclopropyl(3,4-dichlorophenyl)methyl)-3-((2-imino-3-methyl-2,3-dihydro-1H-imidazol-1-yl)methyl)-5-(2-(trifluoromethyl)pyridin-3-yl)benzamide]",9.48
4,"N=c1n(Cc2cc(C(=O)N[C@H](c3ccc(Cl)c(Cl)c3)C3CC3)cc(-c3cccnc3C(F)(F)F)c2)ccn1C1CC1 [Example 155, (S)—N-(Cyclopropyl(3,4-dichlorophenyl)methyl)-3-((3-cyclopropyl-2-imino-2,3-dihydro-1H-imidazol-1-yl)methyl)-5-(2-(trifluoromethyl)pyridin-3-yl)benzamide]",8.85
5,"Cc1cc([C@@H](NC(=O)c2cc(Cn3ccn(C4CC4)c3=N)cc(-c3cn(CC(C)C)nc3C(F)(F)F)c2)C2CC2)ccc1F [Example 163, (S)—N-(Cyclopropyl(4-fluoro-3-methylphenyl)methyl)-3-((3-cyclopropyl-2-imino-2,3-dihydro-1H-imidazol-1-yl)methyl)-5-(1-isobutyl-3-(trifluoromethyl)-1H-pyrazol-4-yl)benzamide]",9.17
6,"Cc1cc([C@@H](NC(=O)c2cc(Cn3ccn(C)c3=N)cc(-c3cn(CC(C)C)nc3C(F)(F)F)c2)C2CC2)ccc1F [Example 165, (S)—N-(Cyclopropyl(4-fluoro-3-methylphenyl)methyl)-3-((2-imino-3-methyl-2,3-dihydro-1H-imidazol-1-yl)methyl)-5-(1-isobutyl-3-(trifluoromethyl)-1H-pyrazol-4-yl)benzamide]",9.85
7,"Cc1cc(F)ccc1-c1cc(Cn2ccn(C)c2=N)cc(C(=O)N[C@@H](c2ccc(F)c(C)n2)C2CC2)c1 [Example 167, (R)—N-(Cyclopropyl(5-fluoro-6-methylpyridin-2-yl)methyl)-4′-fluoro-5-((2-imino-3-methyl-2,3-dihydro-1H-imidazol-1-yl)methyl)-2′-methyl-[1,1′-biphenyl]-3-carboxamide]",9.68
8,"Cn1ccn(Cc2cc(C(=O)NCc3ccc(Cl)c(Cl)c3)cc(-c3cccc4c3OC(F)(F)O4)c2)c1=N [Example 168, N-(3,4-Dichlorobenzyl)-3-(2,2-difluorobenzo[d][1,3]dioxol-4-yl)-5-((2-imino-3-methyl-2,3-dihydro-1H-imidazol-1-yl)methyl)benzamide]",7.57
9,"Cc1cc(F)ccc1-c1cc(Cn2ccn(C)c2=N)cc(C(=O)N[C@H](c2ccc(F)c(C)n2)C2CC2)c1 [Example 173, (S)-1N-(Cyclopropyl(5-fluoro-6-methylpyridin-2-yl)methyl)-4′-fluoro-5-((2-imino-3-methyl-2,3-dihydro-1H-imidazol-1-yl)methyl)-2′-methyl-[1,1′-biphenyl]-3-carboxamide]",9.05
10,"CCOc1cc(Cn2ccn(C)c2=N)cc(C(=O)N[C@@H](C)c2ccc(F)c(C)c2)c1 [Example 176, (S)-3-Ethoxy-N-(1-(4-fluoro-3-methylphenyl)ethyl)-5-((2-imino-3-methyl-2,3-dihydro-1H-imidazol-1-yl)methyl)benzamide]",9.30
11,"COc1cc(CNC(=O)c2cc(Cn3ccn(C)c3=N)cc(OCC3CC3)c2)cc(OC)c1 [Example 178, 3-(Cyclopropylmethoxy)-N-(3,5-dimethoxybenzyl)-5-((2-imino-3-methyl-2,3-dihydro-1H-imidazol-1-yl)methyl)benzamide]",8.48
12,"CCOc1cc(Cn2ccn(C)c2=N)cc(C(=O)N[C@H](c2ccc(F)c(C)c2)C2CC2)c1 [Example 180, (S)—N-(Cyclopropyl(4-fluoro-3-methylphenyl)methyl)-3-methoxy-5-((2-imino-3-methyl-2,3-dihydro-1-imidazol-1-yl)methyl)benzamide]",9.89
13,"Cc1cc([C@H](C)NC(=O)c2cc(Cn3ccn(C)c3=N)cc(OCC3CC3)c2)ccc1F [Example 181, (S)-3-(Cyclopropylmethoxy)-N-(1-(4-fluoro-3-methylphenyl)ethyl)-5-((2-imino-3-methyl-2,3-dihydro-1H-imidazol-1-yl)methyl)benzamide]",9.46
14,"Cc1ccnc([C@@H](NC(=O)c2cc(Cn3ccn(C)c3=N)cc(OCC3CC3)c2)C2CC2)c1 [Example 182, (S)—N-(Cyclopropyl(4-methylpyridin-2-yl)methyl)-3-(cyclopropylmethoxy)-5-((2-imino-3-methyl-2,3-dihydro-1H-imidazol-1-yl)methyl)benzamide]",9.00
15,"CCOc1cc(Cn2ccn(C)c2=N)cc(C(=O)NCc2ccc(Cl)c(C)c2)c1 [Example 183, N-(4-Chloro-3-methylbenzyl)-3-ethoxy-5-((2-imino-3-methyl-2,3-dihydro-1H-imidazol-1-yl)methyl)benzamide]",9.15
16,"COc1cc(-c2cc(Cn3ccn(C)c3=N)cc(C(=O)NCc3ccc(Cl)c(Cl)c3)c2)c(F)cn1 [Example 184, N-(3,4-dichlorobenzyl)-3-(5-fluoro-2-methoxypyridin-4-yl)-5-((2-imino-3-methyl-2,3-dihydro-1H-imidazol-1-yl)methyl)benzamide]",9.25
